Measurements: ChEMBL document CHEMBL1125257, “Dihydropyrimidine calcium channel blockers. 3. 3-Carbamoyl-4-aryl-1,2,3,4-tetrahydro-6-methyl-5-pyrimidinecarboxylic acid esters as orally effective antihypertensive agents” (J Med Chem, 1991)

System: Rattus norvegicus
Assay: Antihypertensive activity when administered orally to spontaneously hypertensive rats
Type: functional, organism-based

COC(=O)C1=C(C)NC(C)=C(C(=O)OC)C1c1ccccc1[N+](=O)[O-] [NIFEDIPINE]
IC50: 2.5 nM

CCOC(=O)C1=C(COCCN)NC(C)=C(C(=O)OC)C1c1ccccc1Cl (configuration not stated) [AMLODIPINE]
IC50: 2.5 nM
